Results as given in PubChem BioAssay AID1259407 (Chemical Carcinogenesis Research Information System (CCRIS), 2018).
The source made the active and inactive calls. The rule behind the calls is not given here.

Tested on: CCRIS mutagenicity, Ames/micronucleus/aberration tests
Assay: CCRIS mutagenicity studies
[1] = Test System: AMES SALMONELLA TYPHIMURIUM, Strain/Indicator: TA98, Metabolic Activation: NONE, Method: PREINCUBATION
[2] = Test System: AMES SALMONELLA TYPHIMURIUM, Strain/Indicator: TA100, Metabolic Activation: NONE, Method: PREINCUBATION
[3] = Test System: AMES SALMONELLA TYPHIMURIUM, Strain/Indicator: TA98, Metabolic Activation: NONE, Method: STANDARD PLATE
[4] = Test System: AMES SALMONELLA TYPHIMURIUM, Strain/Indicator: TA98, Metabolic Activation: RAT, LIVER, S-9, AROCLOR 1254, Method: STANDARD PLATE

Measured: mutagenic call

CCCCCCCCCCCCOCC1CO1 (stereo unspecified)
inactive: Test System: AMES SALMONELLA TYPHIMURIUM, Strain/Indicator: TA97, Metabolic Activation: HAMSTER, LIVER, S-9, AROCLOR 1254 (10%), Method: PREINCUBATION inactive; negative | Test System: AMES SALMONELLA TYPHIMURIUM, Strain/Indicator: TA97, Metabolic Activation: HAMSTER, LIVER, S-9, AROCLOR 1254 (30%), Method: PREINCUBATION inactive; negative | Test System: AMES SALMONELLA TYPHIMURIUM, Strain/Indicator: TA97, Metabolic Activation: NONE, Method: PREINCUBATION inactive; negative | Test System: AMES SALMONELLA TYPHIMURIUM, Strain/Indicator: TA97, Metabolic Activation: RAT, LIVER, S-9, AROCLOR 1254 (10%), Method: PREINCUBATION inactive; negative | Test System: AMES SALMONELLA TYPHIMURIUM, Strain/Indicator: TA97, Metabolic Activation: RAT, LIVER, S-9, AROCLOR 1254 (30%), Method: PREINCUBATION inactive; negative | Test System: AMES SALMONELLA TYPHIMURIUM, Strain/Indicator: TA98, Metabolic Activation: HAMSTER, LIVER, S-9, AROCLOR 1254 (10%), Method: PREINCUBATION inactive; negative | Test System: AMES SALMONELLA TYPHIMURIUM, Strain/Indicator: TA98, Metabolic Activation: HAMSTER, LIVER, S-9, AROCLOR 1254 (30%), Method: PREINCUBATION inactive; negative | [1] inactive; negative | Test System: AMES SALMONELLA TYPHIMURIUM, Strain/Indicator: TA98, Metabolic Activation: RAT, LIVER, S-9, AROCLOR 1254 (10% & 30%), Method: PREINCUBATION inactive; negative | Test System: AMES SALMONELLA TYPHIMURIUM, Strain/Indicator: TA100, Metabolic Activation: HAMSTER, LIVER, S-9, AROCLOR 1254 (10%), Method: PREINCUBATION inactive; negative | Test System: AMES SALMONELLA TYPHIMURIUM, Strain/Indicator: TA100, Metabolic Activation: HAMSTER, LIVER, S-9, AROCLOR 1254 (30%), Method: PREINCUBATION inactive; negative | [2] inactive; negative | Test System: AMES SALMONELLA TYPHIMURIUM, Strain/Indicator: TA100, Metabolic Activation: RAT, LIVER, S-9, AROCLOR 1254 (10%), Method: PREINCUBATION inactive; negative | Test System: AMES SALMONELLA TYPHIMURIUM, Strain/Indicator: TA100, Metabolic Activation: RAT, LIVER, S-9, AROCLOR 1254 (30%), Method: PREINCUBATION inactive; negative | Test System: AMES SALMONELLA TYPHIMURIUM, Strain/Indicator: TA1535, Metabolic Activation: HAMSTER, LIVER, S-9, AROCLOR 1254 (10%), Method: PREINCUBATION inactive; negative | Test System: AMES SALMONELLA TYPHIMURIUM, Strain/Indicator: TA1535, Metabolic Activation: NONE, Method: PREINCUBATION inactive; negative | Test System: AMES SALMONELLA TYPHIMURIUM, Strain/Indicator: TA1535, Metabolic Activation: RAT, LIVER, S-9, AROCLOR 1254 (10%), Method: PREINCUBATION inactive; negative | Test System: AMES SALMONELLA TYPHIMURIUM, Strain/Indicator: TA1535, Metabolic Activation: RAT, LIVER, S-9, AROCLOR 1254 (30%), Method: PREINCUBATION inactive; negative

O=[N+]([O-])c1ccc2c(c1)oc1ccc([N+](=O)[O-])cc12
inactive: Test System: AMES SALMONELLA TYPHIMURIUM, Strain/Indicator: TA98(NR), Metabolic Activation: NONE, Method: PREINCUBATION inactive; negative | Test System: AMES SALMONELLA TYPHIMURIUM, Strain/Indicator: TA98(NR), Metabolic Activation: NONE, Method: SUSPENSION inactive; negative | [2] inactive; negative | Test System: AMES SALMONELLA TYPHIMURIUM, Strain/Indicator: TA100, Metabolic Activation: NONE, Method: SUSPENSION inactive; negative | Test System: AMES SALMONELLA TYPHIMURIUM, Strain/Indicator: TA100, Metabolic Activation: RAT, LIVER, S-9, PCB (5%), Method: PREINCUBATION inactive; negative
active: Test System: AMES SALMONELLA TYPHIMURIUM, Strain/Indicator: TA98(1,8-DNP6), Metabolic Activation: NONE, Method: PREINCUBATION active; positive | Test System: AMES SALMONELLA TYPHIMURIUM, Strain/Indicator: TA98(1,8-DNP6), Metabolic Activation: NONE, Method: SUSPENSION active; positive | Test System: AMES SALMONELLA TYPHIMURIUM, Strain/Indicator: TA98(1,8-DNP6), Metabolic Activation: RAT, LIVER, S-9, PCB (5%), Method: PREINCUBATION active; positive | Test System: AMES SALMONELLA TYPHIMURIUM, Strain/Indicator: TA98(NR), Metabolic Activation: RAT, LIVER, S-9 (10%), Method: PREINCUBATION active; positive | Test System: AMES SALMONELLA TYPHIMURIUM, Strain/Indicator: TA98(NR), Metabolic Activation: RAT, LIVER, S-9, 3-METHYLCHOLANTHRENE (10%), Method: PREINCUBATION active; positive | Test System: AMES SALMONELLA TYPHIMURIUM, Strain/Indicator: TA98(NR), Metabolic Activation: RAT, LIVER, S-9, BETA-NAPHTHOFLAVONE (10%), Method: PREINCUBATION active; positive | Test System: AMES SALMONELLA TYPHIMURIUM, Strain/Indicator: TA98(NR), Metabolic Activation: RAT, LIVER, S-9, PCB (5 OR 10%), Method: PREINCUBATION active; positive | Test System: AMES SALMONELLA TYPHIMURIUM, Strain/Indicator: TA98(NR), Metabolic Activation: RAT, LIVER, S-9, PHENOBARBITAL (10%), Method: PREINCUBATION active; positive | [1] active; positive | Test System: AMES SALMONELLA TYPHIMURIUM, Strain/Indicator: TA98, Metabolic Activation: NONE, Method: SUSPENSION active; positive | Test System: AMES SALMONELLA TYPHIMURIUM, Strain/Indicator: TA98, Metabolic Activation: RAT, LIVER, S-9, PCB (5%), Method: PREINCUBATION active; positive | Test System: AMES SALMONELLA TYPHIMURIUM, Strain/Indicator: TA98, Metabolic Activation: RAT, LIVER, S-9, PCB, Method: SUSPENSION active; positive | Test System: AMES SALMONELLA TYPHIMURIUM, Strain/Indicator: TA100, Metabolic Activation: RAT, LIVER, S-9, PCB, Method: SUSPENSION active; positive

CC(=O)N[C@@H](CS/C(Cl)=C/Cl)C(=O)O
active: Test System: AMES SALMONELLA TYPHIMURIUM, Strain/Indicator: TA2638, Metabolic Activation: NONE, Method: PREINCUBATION active; positive | Test System: AMES SALMONELLA TYPHIMURIUM, Strain/Indicator: TA2638, Metabolic Activation: RAT, KIDNEY, CYTOSOL, Method: PREINCUBATION active; positive

c1cncc(C2=NCCC2)c1
active: End Point: Lymphocytes, Strain/Indicator: Human (male and female) (HPRT)/6-Thioguanine, Metabolic Activation: None active; positive (p=0.038)

O=[N+]([O-])c1cc2cc3ccc4cccc5ccc(c2o1)c3c45
active: Test System: AMES SALMONELLA TYPHIMURIUM, Strain/Indicator: TA98(NR), Metabolic Activation: NONE, Method: STANDARD PLATE active; positive | Test System: AMES SALMONELLA TYPHIMURIUM, Strain/Indicator: TA98(NR), Metabolic Activation: RAT, LIVER, S-9, AROCLOR 1254, Method: STANDARD PLATE active; positive | [3] active; positive | [4] active; positive

N=c1ccc2nc3ccc(N)cc3sc-2c1
active: [3] active; positive | [4] active; positive | Test System: AMES SALMONELLA TYPHIMURIUM, Strain/Indicator: TA1538, Metabolic Activation: NONE, Method: STANDARD PLATE active; positive | Test System: AMES SALMONELLA TYPHIMURIUM, Strain/Indicator: TA1538, Metabolic Activation: RAT, LIVER, S-9, AROCLOR 1254, Method: STANDARD PLATE active; positive
inactive: Test System: AMES SALMONELLA TYPHIMURIUM, Strain/Indicator: TA1535, Metabolic Activation: NONE, Method: STANDARD PLATE inactive; negative | Test System: AMES SALMONELLA TYPHIMURIUM, Strain/Indicator: TA1535, Metabolic Activation: RAT, LIVER, S-9, AROCLOR 1254, Method: STANDARD PLATE inactive; negative | Test System: AMES SALMONELLA TYPHIMURIUM, Strain/Indicator: TA1537, Metabolic Activation: NONE, Method: STANDARD PLATE inactive; negative | Test System: AMES SALMONELLA TYPHIMURIUM, Strain/Indicator: TA1537, Metabolic Activation: RAT, LIVER, S-9, AROCLOR 1254, Method: STANDARD PLATE inactive; negative
